Earlier results, collected in patent publication US20090098202A1, “Extended Release Formulation” (BOEHRINGER INGELHEIM INTERNATIONAL GMBH, priority 2006, published 2009).
Structures can show the parent of a compound that is named as a salt.

Legend:
[1] = in the elderly
[2] = not given; remark: listed apart in the source

| elimination half-life (t1/2[h]) [1] | stability in solution (in solution, light) | stability in the solid state (solid state) | solubility in buffer media ([2]; between pH 2 and pH 7.4) | Water solubility ([2]; water) | SMILES |
| --- | --- | --- | --- | --- | --- |
| 12 h | light sensitive | very stable |  |  | CCCN[C@H]1CCc2nc(N)sc2C1 [Pramipexole, (S)-2-Amino-4,5,6,7-tetrahydro-6-(propylamino)benzothiazole] |
|  |  |  | above 10 mg/ml | more than 20 mg/ml | CCCN[C@H]1CCc2nc(N)sc2C1 [Pramipexole dihydrochloride monohydrate, pramipexole dihydrochloride monohydrate] |
